Measurements taken from PubChem BioAssay (NCI).
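A five-concentration, 48-hour dose response in 96-well plates underlies each endpoint, interpolated linearly between surrounding concentrations. GI50 is the concentration that inhibits growth by half. TGI: concentration producing complete growth inhibition.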

Assays:
Assay in all cases: growth of human tumour cells (NCI), 48 h
OVCAR-3 ovarian = system: OVCAR-3 ovarian
786-0 renal = system: 786-0 renal
HT29 colon = system: HT29 colon
MCF7 breast = system: MCF7 breast
NCI-H460 lung = system: NCI-H460 lung
PC-3 prostate = system: PC-3 prostate
MALME-3M melanoma = system: MALME-3M melanoma
ACHN renal = system: ACHN renal
BT-549 breast = system: BT-549 breast
HL-60(TB) leukemia = system: HL-60(TB) leukemia
KM12 colon = system: KM12 colon
NCI-H226 lung = system: NCI-H226 lung
NCI-H23 lung = system: NCI-H23 lung
HOP-62 NSCLC = system: HOP-62 NSCLC
A549 NSCLC = system: A549 NSCLC
IGROV1 ovarian = system: IGROV1 ovarian
SK-MEL-5 melanoma = system: SK-MEL-5 melanoma
UACC-257 melanoma = system: UACC-257 melanoma
HS 578T breast = system: HS 578T breast
TK-10 renal = system: TK-10 renal
T-47D breast = system: T-47D breast
HCT-15 colon = system: HCT-15 colon
RXF 393 renal = system: RXF 393 renal
CCRF-CEM leukemia = system: CCRF-CEM leukemia
MDA-MB-468 breast = system: MDA-MB-468 breast
A498 renal = system: A498 renal
DU-145 prostate = system: DU-145 prostate
NCI/ADR-RES ovarian = system: NCI/ADR-RES ovarian
LOX IMVI melanoma = system: LOX IMVI melanoma
SF-539 CNS = system: SF-539 CNS
SK-OV-3 ovarian = system: SK-OV-3 ovarian
OVCAR-5 ovarian = system: OVCAR-5 ovarian
M14 melanoma = system: M14 melanoma
K-562 leukemia = system: K-562 leukemia
HCC-2998 colon = system: HCC-2998 colon
RPMI-8226 leukemia = system: RPMI-8226 leukemia
MDA-MB-231 breast = system: MDA-MB-231 breast
EKVX NSCLC = system: EKVX NSCLC
NCI-H522 lung = system: NCI-H522 lung
UO-31 renal = system: UO-31 renal
OVCAR-4 ovarian = system: OVCAR-4 ovarian
SK-MEL-2 melanoma = system: SK-MEL-2 melanoma
OVCAR-8 ovarian = system: OVCAR-8 ovarian
SN12C renal = system: SN12C renal
MDA-MB-435 = system: MDA-MB-435
SNB-19 CNS = system: SNB-19 CNS
CAKI-1 renal = system: CAKI-1 renal
SK-MEL-28 melanoma = system: SK-MEL-28 melanoma
MOLT-4 leukemia = system: MOLT-4 leukemia
COLO 205 colon = system: COLO 205 colon
SR leukemia = system: SR leukemia
SW-620 colon = system: SW-620 colon
SF-295 CNS = system: SF-295 CNS
UACC-62 melanoma = system: UACC-62 melanoma
HCT-116 colon = system: HCT-116 colon
SF-268 CNS = system: SF-268 CNS
U251 CNS = system: U251 CNS

Work on `COc1ccc(C(=O)/C=C/c2cccnc2)cc1S(N)(=O)=O` yielded a GI50 (OVCAR-3 ovarian) of 10.3 µM, a TGI (OVCAR-3 ovarian) of 21.6 µM and a GI50 (786-0 renal) of 11.2 µM. For the same compound, the TGI (786-0 renal) was 24.1 µM, the GI50 (HT29 colon) was 5.49 µM and the TGI (HT29 colon) was 21.2 µM. The GI50 (MCF7 breast) was 4.87 µM, the TGI (MCF7 breast) was 18.5 µM and the GI50 (NCI-H460 lung) was 9.17 µM. It also gave a TGI (NCI-H460 lung) of 44.9 µM, a GI50 (PC-3 prostate) of 16.5 µM and a TGI (PC-3 prostate) of 33.2 µM. For the same compound, the GI50 (MALME-3M melanoma) was 14.2 µM, the TGI (MALME-3M melanoma) was 27.1 µM and the GI50 (ACHN renal) was 13.5 µM. It also gave a TGI (ACHN renal) of 25.5 µM, a GI50 (BT-549 breast) of 12.9 µM and a TGI (BT-549 breast) of 25.4 µM. The GI50 (HL-60(TB) leukemia) was 11 µM, the TGI (HL-60(TB) leukemia) was 32.7 µM and the GI50 (KM12 colon) was 3.8 µM. For the same compound, the TGI (KM12 colon) was 14.4 µM, the GI50 (NCI-H226 lung) was 14.4 µM and the TGI (NCI-H226 lung) was 32.3 µM. It also gave a GI50 (NCI-H23 lung) of 12 µM, a TGI (NCI-H23 lung) of 24.1 µM and a GI50 (HOP-62 NSCLC) of 15.6 µM. It also gave a TGI (HOP-62 NSCLC) of 33 µM, a GI50 (A549 NSCLC) of 13.8 µM and a TGI (A549 NSCLC) of 33.9 µM. For the same compound, the GI50 (IGROV1 ovarian) was 12.4 µM, the TGI (IGROV1 ovarian) was 24.7 µM and the GI50 (SK-MEL-5 melanoma) was 14.8 µM. For the same compound, the TGI (SK-MEL-5 melanoma) was 27.3 µM, the GI50 (UACC-257 melanoma) was 15.7 µM and the TGI (UACC-257 melanoma) was 32.2 µM. For the same compound, the GI50 (HS 578T breast) was 21.1 µM, the TGI (HS 578T breast) was 65.6 µM and the GI50 (TK-10 renal) was 13.9 µM. The TGI (TK-10 renal) was 26.6 µM, the GI50 (T-47D breast) was 8.86 µM and the TGI (T-47D breast) was 25.6 µM. The GI50 (HCT-15 colon) was 4.18 µM, the TGI (HCT-15 colon) was 16.7 µM and the GI50 (RXF 393 renal) was 12.3 µM. The TGI (RXF 393 renal) was 24.7 µM, the GI50 (CCRF-CEM leukemia) was 12.6 µM and the TGI (CCRF-CEM leukemia) was 33.2 µM. It also gave a GI50 (MDA-MB-468 breast) of 7.1 µM, a TGI (MDA-MB-468 breast) of 20.1 µM and a GI50 (A498 renal) of 21.7 µM. For the same compound, the TGI (A498 renal) was 53.6 µM, the GI50 (DU-145 prostate) was 11.2 µM and the TGI (DU-145 prostate) was 22.6 µM. For the same compound, the GI50 (NCI/ADR-RES ovarian) was 23.4 µM, the TGI (NCI/ADR-RES ovarian) was 90.2 µM and the GI50 (LOX IMVI melanoma) was 4.63 µM. It also gave a TGI (LOX IMVI melanoma) of 16.1 µM, a GI50 (SF-539 CNS) of 4.32 µM and a TGI (SF-539 CNS) of 15.7 µM. The GI50 (SK-OV-3 ovarian) was 16.7 µM, the TGI (SK-OV-3 ovarian) was 31.1 µM and the GI50 (OVCAR-5 ovarian) was 11.9 µM. For the same compound, the TGI (OVCAR-5 ovarian) was 23.5 µM, the GI50 (M14 melanoma) was 14.3 µM and the TGI (M14 melanoma) was 29 µM. The GI50 (K-562 leukemia) was 2.92 µM, the TGI (K-562 leukemia) was 20.5 µM and the GI50 (HCC-2998 colon) was 13.9 µM. The TGI (HCC-2998 colon) was 26.1 µM, the GI50 (RPMI-8226 leukemia) was 9.08 µM and the TGI (RPMI-8226 leukemia) was 28.2 µM. For the same compound, the GI50 (MDA-MB-231 breast) was 13.4 µM, the TGI (MDA-MB-231 breast) was 25.5 µM and the GI50 (EKVX NSCLC) was 11.9 µM. It also gave a TGI (EKVX NSCLC) of 24.2 µM, a GI50 (NCI-H522 lung) of 10.5 µM and a TGI (NCI-H522 lung) of 24.1 µM. For the same compound, the GI50 (UO-31 renal) was 6.05 µM, the TGI (UO-31 renal) was 18.5 µM and the GI50 (OVCAR-4 ovarian) was 16.3 µM. The TGI (OVCAR-4 ovarian) was 36 µM, the GI50 (SK-MEL-2 melanoma) was 19.4 µM and the TGI (SK-MEL-2 melanoma) was 49.7 µM. It also gave a GI50 (OVCAR-8 ovarian) of 15.1 µM, a TGI (OVCAR-8 ovarian) of 35.6 µM and a GI50 (SN12C renal) of 7.37 µM. The TGI (SN12C renal) was 18.8 µM, the GI50 (MDA-MB-435) was 14.4 µM and the TGI (MDA-MB-435) was 31.1 µM. It also gave a GI50 (SNB-19 CNS) of 13.4 µM, a TGI (SNB-19 CNS) of 25.4 µM and a GI50 (CAKI-1 renal) of 12.7 µM. It also gave a TGI (CAKI-1 renal) of 24.9 µM, a GI50 (SK-MEL-28 melanoma) of 14.9 µM and a TGI (SK-MEL-28 melanoma) of 27.5 µM. The GI50 (MOLT-4 leukemia) was 3.5 µM, the TGI (MOLT-4 leukemia) was 15.1 µM and the GI50 (COLO 205 colon) was 13.7 µM. The TGI (COLO 205 colon) was 29.8 µM, the GI50 (SR leukemia) was 1.83 µM and the TGI (SR leukemia) was 6.68 µM. For the same compound, the GI50 (SW-620 colon) was 6.38 µM, the TGI (SW-620 colon) was 29.5 µM and the GI50 (SF-295 CNS) was 12.8 µM. It also gave a TGI (SF-295 CNS) of 25.2 µM, a GI50 (UACC-62 melanoma) of 12.8 µM and a TGI (UACC-62 melanoma) of 24.7 µM. The GI50 (HCT-116 colon) was 3.18 µM, the TGI (HCT-116 colon) was 11.7 µM and the GI50 (SF-268 CNS) was 13.6 µM. The TGI (SF-268 CNS) was 31.6 µM, the GI50 (U251 CNS) was 7.44 µM and the TGI (U251 CNS) was 26.7 µM.
